Laboratory results as given in patent EP1171607B1, “STREPTOKINASE FRAGMENTS AND THEIR USE FOR INHIBITING CELL DEATH” (Rabkin, Simon W., priority 1999, dated 2000).
Where no end group is shown, it is not given here.

Key:
M07E = M07E starved 30 hours in 1% fetal calf serum; 20 µg/ml peptide
Protocol: (§1) The hematopoietic, growth factor dependent cell lines, M07E and TF-1 (Mijajima, CDNAX Research Institute, Palo Alto, California), were starved for 30 hours in DMEM containing 1% fetal calf serum (Hyclone, Logan, Utah) in the presence or absence of 20 µg/ml of the 20mer peptide (SEQ. ID NO. 6). Cell viability was measured by one of two methods, trypan blue exclusion or ^3H-thymidine incorporation (Alai et al., J. Biol. Chem. 267:18021-18025, 1992).

TF-1 = TF-1 starved 30 hours in 1% fetal calf serum; 20 µg/ml peptide
Protocol: as §1

SVDVEYTQFTDFRGKLTKLL [Peptide 20mer]
TRYPAN BLUE COUNTS (% VIABILITY) (M07E): 20 ± 0.5% | TRYPAN BLUE COUNTS (% VIABILITY) (TF-1): 29 ± 1%
